Each structure is given as a SMILES string.

The series deals with microorganisms.

As for `O=C(O)CCCCC(=O)O` [Adipic acid], the “portion of the total mortality observed accounted for by the toxicity” value is “about 60%”. The “toxicity (mortality) on its own” value (pH 4.24) was determined as 45.8%.

The record behind these values is patent US9492377B2, “Effervescent composition in solid form for use in vaginal applications for the treatment of vaginal infections” (PROBIOTICAL S.P.A., priority 2011, dated 2016).
